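In this assay, cells in 96-well plates receive the compound at five concentrations for 48 hours. Endpoints are linearly interpolated between the surrounding concentrations. GI50: concentration for 50% inhibition of growth.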 Activity calls are given as the source filed them. Cut-off read from the data, not from the text of the source: active = GI50 up to about 1.1 µM and inactive = higher.
Legend:
Assay in all cases: NCI-60 cell line screen, 48 h
[1] = system: DMS-114
[2] = system: A549
[3] = system: HCT-116
[4] = system: NCI-H226
[5] = system: SF-295
[6] = system: HT-29
[7] = system: SK-OV-3
[8] = system: SF-539
[9] = system: SNB-75
[10] = system: A498
[11] = system: OVCAR-3
[12] = system: DMS-273
[13] = system: UO-31
[14] = system: OVCAR-8
[15] = system: OVCAR-5
[16] = system: DLD-1
[17] = system: MCF7
[18] = system: HCT-15
[19] = system: NCI/ADR-RES
[20] = system: HOP-92
[21] = system: EKVX
[22] = system: SK-MEL-2
[23] = system: HCC 2998
[24] = system: RPMI-8226
[25] = system: HOP-62
[26] = system: SNB-19
[27] = system: SK-MEL-5
[28] = system: SF-268
[29] = system: KM12
[30] = system: M19-MEL
[31] = system: IGROV-1
[32] = system: NCI-H522
[33] = system: COLO 205
[34] = system: K562
[35] = system: CAKI-1
[36] = system: XF498
[37] = system: LOX IMVI
[38] = system: UACC-257
[39] = system: UACC-62
[40] = system: U-251
[41] = system: MOLT-4
[42] = system: HOP-18
[43] = system: NCI-H23
[44] = system: NCI-H460
[45] = system: OVCAR-4
[46] = system: HL-60
[47] = system: CCRF-CEM
[48] = system: SK-MEL-28
[49] = system: SN12C
[50] = system: SW-620
[51] = system: ACHN
[52] = system: 786-0
[53] = system: SR
[54] = system: SNB-78
[55] = system: Malme-3M
[56] = system: M14
[57] = system: TK-10

Which GI50 [1] does the source give for `O=C1C=C[C@@H](COC2OC(CO)C(O)C(O)C2O)O1` (stereo partly drawn) here?
The GI50 was 14.1 µM (inactive).

And the GI50 [2]?
The GI50 was 22 µM (inactive).

And the GI50 [3]?
The GI50 was > 100 µM (inactive).

What about the GI50 [4] of the same compound?
The GI50 was 35.7 µM (inactive).

And the GI50 [5]?
Its GI50 is 18.1 µM (inactive).

What about the GI50 [6] of the same compound?
The GI50 was 5.86 µM (inactive).

And the GI50 [7]?
The GI50 was 73.6 µM (inactive).

What about the GI50 [8] of the same compound?
Its GI50 is 5.6 µM (inactive).

What about the GI50 [9] of the same compound?
Its GI50 is 14.9 µM (inactive).

What about the GI50 [10] of the same compound?
The GI50 was 16.1 µM (inactive).

And the GI50 [11]?
Its GI50 is 16.8 µM (inactive).

And the GI50 [12]?
Its GI50 is 14.1 µM (inactive).

What about the GI50 [13] of the same compound?
The GI50 was 50.2 µM (inactive).

What about the GI50 [14] of the same compound?
The GI50 was 14.2 µM (inactive).

What about the GI50 [15] of the same compound?
The GI50 was 22 µM (inactive).

What about the GI50 [16] of the same compound?
The GI50 was 3.35 µM (inactive).

And the GI50 [17]?
The GI50 was 4.46 µM (inactive).

And the GI50 [18]?
The GI50 was 3.69 µM.

And the GI50 [19]?
The GI50 was 4.38 µM (inactive).

And the GI50 [20]?
The GI50 was 20.5 µM (inactive).

And the GI50 [21]?
Its GI50 is 20.4 µM (inactive).

What about the GI50 [22] of the same compound?
The GI50 was 13.6 µM (inactive).

What about the GI50 [23] of the same compound?
The GI50 was 40 µM (inactive).

What about the GI50 [24] of the same compound?
Its GI50 is 3.16 µM (inactive).

What about the GI50 [25] of the same compound?
Its GI50 is 56.2 µM (inactive).

And the GI50 [26]?
The GI50 was > 10 µM (inactive).

And the GI50 [27]?
The GI50 was 17.8 µM (inactive).

What about the GI50 [28] of the same compound?
Its GI50 is 25.8 µM (inactive).

And the GI50 [29]?
The GI50 was 4.95 µM (inactive).

What about the GI50 [30] of the same compound?
The GI50 was 12.8 µM (inactive).

And the GI50 [31]?
The GI50 was 27.6 µM (inactive).

What about the GI50 [32] of the same compound?
Its GI50 is 5.14 µM (inactive).

What about the GI50 [33] of the same compound?
The GI50 was 6.98 µM (inactive).

And the GI50 [34]?
Its GI50 is 3.42 µM (inactive).

What about the GI50 [35] of the same compound?
The GI50 was 17.9 µM (inactive).

What about the GI50 [36] of the same compound?
The GI50 was 16.6 µM (inactive).

And the GI50 [37]?
Its GI50 is 3.88 µM (inactive).

What about the GI50 [38] of the same compound?
The GI50 was 14.3 µM (inactive).

What about the GI50 [39] of the same compound?
The GI50 was 10.2 µM (inactive).

What about the GI50 [40] of the same compound?
The GI50 was 15.7 µM (inactive).

What about the GI50 [41] of the same compound?
The GI50 was 4.39 µM (inactive).

What about the GI50 [42] of the same compound?
The GI50 was 68.2 µM (inactive).

What about the GI50 [43] of the same compound?
The GI50 was 10.9 µM (inactive).

And the GI50 [44]?
The GI50 was 10.3 µM (inactive).

What about the GI50 [45] of the same compound?
The GI50 was 19 µM (inactive).

What about the GI50 [46] of the same compound?
The GI50 was 1.72 µM (inactive).

What about the GI50 [47] of the same compound?
Its GI50 is 1.36 µM (inactive).

What about the GI50 [48] of the same compound?
The GI50 was > 100 µM (inactive).

And the GI50 [49]?
Its GI50 is 5.93 µM (inactive).

What about the GI50 [50] of the same compound?
The GI50 was 3.78 µM (inactive).

For `COc1cc(/C=C2\C(=O)N(C(=O)Cc3ccccc3)N=C2C)ccc1O`, which GI50 [1] is on record?
Its GI50 is > 100 µM (inactive).

What about the GI50 [51] of the same compound?
Its GI50 is > 100 µM (inactive).

And the GI50 [52]?
Its GI50 is > 100 µM (inactive).

What about the GI50 [2] of the same compound?
The GI50 was > 100 µM (inactive).

What about the GI50 [3] of the same compound?
Its GI50 is > 100 µM (inactive).

And the GI50 [4]?
Its GI50 is > 100 µM (inactive).

And the GI50 [5]?
Its GI50 is > 100 µM (inactive).

What about the GI50 [6] of the same compound?
The GI50 was > 10 µM (inactive).

And the GI50 [8]?
Its GI50 is > 100 µM (inactive).

And the GI50 [9]?
The GI50 was > 100 µM (inactive).

What about the GI50 [11] of the same compound?
Its GI50 is > 100 µM (inactive).

What about the GI50 [12] of the same compound?
The GI50 was > 100 µM (inactive).

And the GI50 [13]?
The GI50 was > 100 µM (inactive).

And the GI50 [14]?
The GI50 was > 100 µM (inactive).

What about the GI50 [15] of the same compound?
Its GI50 is > 100 µM (inactive).

What about the GI50 [16] of the same compound?
The GI50 was > 100 µM (inactive).

What about the GI50 [18] of the same compound?
The GI50 was > 100 µM.

What about the GI50 [21] of the same compound?
Its GI50 is > 100 µM (inactive).

What about the GI50 [22] of the same compound?
Its GI50 is > 100 µM (inactive).

What about the GI50 [53] of the same compound?
Its GI50 is > 100 µM (inactive).

What about the GI50 [23] of the same compound?
Its GI50 is > 100 µM (inactive).

And the GI50 [24]?
The GI50 was > 100 µM (inactive).

What about the GI50 [25] of the same compound?
The GI50 was > 100 µM (inactive).

What about the GI50 [26] of the same compound?
Its GI50 is > 100 µM (inactive).

What about the GI50 [27] of the same compound?
The GI50 was 3.01 µM (inactive).

And the GI50 [28]?
The GI50 was > 100 µM (inactive).

And the GI50 [29]?
Its GI50 is > 100 µM (inactive).

And the GI50 [30]?
Its GI50 is > 100 µM (inactive).

And the GI50 [32]?
The GI50 was > 100 µM (inactive).

And the GI50 [33]?
The GI50 was > 100 µM (inactive).

And the GI50 [34]?
The GI50 was > 100 µM (inactive).

And the GI50 [35]?
The GI50 was > 100 µM (inactive).

And the GI50 [54]?
Its GI50 is > 100 µM (inactive).

What about the GI50 [36] of the same compound?
Its GI50 is > 100 µM (inactive).

And the GI50 [37]?
The GI50 was > 100 µM (inactive).

What about the GI50 [55] of the same compound?
The GI50 was > 100 µM (inactive).

What about the GI50 [38] of the same compound?
The GI50 was > 100 µM (inactive).

And the GI50 [56]?
The GI50 was > 100 µM (inactive).

What about the GI50 [41] of the same compound?
The GI50 was > 100 µM (inactive).

What about the GI50 [42] of the same compound?
The GI50 was > 100 µM (inactive).

And the GI50 [43]?
The GI50 was > 100 µM (inactive).

What about the GI50 [45] of the same compound?
The GI50 was > 100 µM (inactive).

And the GI50 [46]?
The GI50 was > 100 µM (inactive).

What about the GI50 [47] of the same compound?
The GI50 was > 100 µM (inactive).

What about the GI50 [48] of the same compound?
The GI50 was > 100 µM (inactive).

And the GI50 [49]?
Its GI50 is > 100 µM (inactive).

What about the GI50 [50] of the same compound?
Its GI50 is > 100 µM (inactive).

And the GI50 [57]?
The GI50 was > 100 µM (inactive).
